Results from the NIST ThermoML archive (doi:10.1021/je800497u).

Experiment: xn = mol fraction of the nth substance listed
Conditions: 101 kPa, Liquid

CCCO [propan-1-ol] + CCCCCCCCCO
x1 = 1
Conditions | mass density [kg/m3] | viscosity [mPa·s]
293.15 K | 803.5 | 2.272
298.15 K | 799.6 | 1.966

CCCO [propan-1-ol] + CCCCCCCO
x1 = 1
Conditions | mass density [kg/m3] | viscosity [mPa·s]
293.15 K | 803.5 | 2.272
298.15 K | 799.6 | 1.966

CCCCCCCCCO [nonan-1-ol] + CCCCCO
Conditions | mass density, 293.15 K [kg/m3] | mass density, 298.15 K [kg/m3] | viscosity, 293.15 K [mPa·s] | viscosity, 298.15 K [mPa·s]
x2 = 0 | 827.9 | 824.4 | 11.68 | 9.671
x2 = 0.1155 | 826.6 | 823.1 | 10.72 | 8.891
x2 = 0.2155 | 825.6 | 822.2 | 9.71 | 8.083
x2 = 0.3161 | 824.5 | 821.1 | 8.734 | 7.313
x2 = 0.4052 | 823.6 | 820.1 | 8.071 | 6.815
x2 = 0.5066 | 822.4 | 818.9 | 7.27 | 6.128
x2 = 0.6079 | 821 | 817.5 | 6.582 | 5.55
x2 = 0.7036 | 819.6 | 816.1 | 5.898 | 5.017
x2 = 0.7935 | 818.2 | 814.7 | 5.192 | 4.473
x2 = 0.8913 | 816.6 | 813 | 4.631 | 3.976

CCCCCCCCCO [nonan-1-ol] + CCCCCCCO
Conditions | mass density, 293.15 K [kg/m3] | mass density, 298.15 K [kg/m3] | viscosity, 293.15 K [mPa·s] | viscosity, 298.15 K [mPa·s]
x2 = 0 | 827.9 | 824.4 | 11.68 | 9.671
x2 = 0.1181 | 827 | 823.6 | 11.16 | 9.249
x2 = 0.2245 | 826.6 | 823.2 | 10.56 | 8.777
x2 = 0.307 | 826.2 | 822.8 | 10.02 | 8.328
x2 = 0.4093 | 825.7 | 822.3 | 9.551 | 7.951
x2 = 0.5045 | 825.1 | 821.7 | 9.146 | 7.628
x2 = 0.5969 | 824.7 | 821.2 | 8.61 | 7.211
x2 = 0.6924 | 824.2 | 820.7 | 8.347 | 6.976
x2 = 0.7866 | 823.6 | 820.2 | 7.968 | 6.662
x2 = 0.8883 | 823 | 819.5 | 7.439 | 6.266

CCCO [propan-1-ol] + CCCCCO
x1 = 1
Conditions | mass density [kg/m3] | viscosity [mPa·s]
293.15 K | 803.5 | 2.272
298.15 K | 799.6 | 1.966

CCCCCCCO [heptan-1-ol] + CCCCCO
Conditions | mass density, 293.15 K [kg/m3] | mass density, 298.15 K [kg/m3] | viscosity, 293.15 K [mPa·s] | viscosity, 298.15 K [mPa·s]
x2 = 0 | 822.2 | 818.7 | 7.104 | 5.993
x2 = 0.123 | 821.4 | 818 | 6.696 | 5.692
x2 = 0.2117 | 820.8 | 817.4 | 6.374 | 5.408
x2 = 0.3131 | 820.2 | 816.7 | 6.079 | 5.158
x2 = 0.4177 | 819.4 | 815.9 | 5.758 | 4.899
x2 = 0.5088 | 818.8 | 815.3 | 5.421 | 4.652
x2 = 0.5897 | 818.2 | 814.7 | 5.177 | 4.431
x2 = 0.6996 | 817.3 | 813.8 | 4.887 | 4.189
x2 = 0.7885 | 816.5 | 812.9 | 4.651 | 3.997
x2 = 0.8909 | 815.6 | 812 | 4.287 | 3.717
